Assay: precipitation test for drug-containing mixture solutions
Assay type: physicochemical
Conditions: mixture solution containing crosslinked temperature-responsive viscous solution (DDK Gel: poloxamer and crosslinked alginate), FIG. 7
Text: In FIG. 7, DDK Gel means a gel composed of poloxamer and crosslinked alginate.

Row | Molecule | precipitate formation
1 | CC(C)Cc1ccc(C(C)C(=O)O)cc1 (centres unmarked) [ibuprofen] | formed a precipitate
2 | gentamicin | sodium alginate was precipitated

Source: patent US20200086049A1, “Kit For Treating or Relieving Pain at Incision Site Following Surgical Procedure” (GENEWEL CO., LTD., priority 2017, published 2020)
